Laboratory results published in patent US20020052295A1, “Diacyl derivatives of propylene diamine having herbicidal activity” (priority 1999, published 2002).

Tests used:
Settings in all cases: lowest tested rate giving 80% or greater inhibition, approx. 14 days after planting and treating, greenhouse
ABUTH = experiment: Pre-emergence herbicidal activity on ABUTH (velvetleaf); type: in vivo, Abutilon theophrasti
Summary of the method: (§1)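 GR80 values come from percent inhibition relative to untreated plants, rated roughly 14 days after planting and treating, with rates up to typically 1000 g/ha. Compound was sprayed onto the soil over freshly covered seeds as a dilution in 50:50 acetone/water; pots kept in greenhouse at 30/21° C. day/night after 0.64 cm overhead watering.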

SOLNI = experiment: Pre-emergence herbicidal activity on SOLNI (black nightshade); type: in vivo, Solanum nigrum
Summary of the method: as §1

AMARE = experiment: Pre-emergence herbicidal activity on AMARE (redroot pigweed); type: in vivo, Amaranthus retroflexus
Summary of the method: as §1

DATST = experiment: Pre-emergence herbicidal activity on DATST (jimsonweed); type: in vivo, Datura stramonium
Summary of the method: as §1

CHEAL = experiment: Pre-emergence herbicidal activity on CHEAL (common lambsquarters); type: in vivo, Chenopodium album
Summary of the method: as §1

CONAR = experiment: Pre-emergence herbicidal activity on CONAR (field bindweed); type: in vivo, Convolvulus arvensis
From the text: (§2) All such uses, and the biological activity enabling such uses, are embraced by the term “herbicidal” herein. Tables 15 and 16 summarize results of tests conducted as described below to determine the pre-emergence herbicidal activity, in the form of a GR80 value, of illustrative compounds of this invention. […] Where herbicidal activity was evident but 80% inhibition was not achieved at the highest rate tested (typically 1000 g/ha), an asterisk (*) is shown in the following tables. Herbicidal activity evident in the form of symptoms of phytotoxicity, in the absence of at least 80% inhibition at any rate, is indicated in the tables by “phyto”. A blank cell in the following tables indicates no herbicidal or phytotoxic response at any rate tested.
(§3) The pre-emergence tests were conducted by the following procedure. Topsoil was sieved to pass through a 1.27 cm screen. Fertilizer was added to the topsoil and the mixture was then sterilized by heating. The topsoil mixture was placed in a pot and compacted to a depth of 1.0 to 1.25 cm from the top of the pot. Seeds of each of several monocotyledonous and dicotyledonous annual plant species were placed on top of the soil. Additional soil was subsequently placed over the seeds to level-fill the pot. A known amount of each test compound dissolved or suspended in an appropriate organic solvent was diluted with a 50:50 mix of acetone and water and applied to the surface of the soil. After treatment the plants were placed in a greenhouse with a 30/21° C. day/night temperature regime where they received 0.64 cm of overhead irrigation. All subsequent watering consisted of a light overhead mist and/or subirrigation as needed for germination and growth.
(§4) Approximately 14 days after planting and treating, the plants were observed and herbicidal efficacy recorded as percent inhibition by comparison with untreated plants.
(§5) The plant species usually regarded as weeds which were utilized in the tests are identified in the tables below according to the following legend, in which “d” indicates a dicotyledonous species and “m” a monocotyledonous species. All monocotyledonous species included in the tests herein are grasses.

POROL = experiment: Pre-emergence herbicidal activity on POROL (common purslane); type: in vivo, Portulaca oleracea
Summary of the method: as §1

CIRAR = experiment: Pre-emergence herbicidal activity on CIRAR (canada thistle, seedling); type: in vivo, Cirsium arvense
Summary of the method: as §1

ECHCG = experiment: Pre-emergence herbicidal activity on ECHCG (barnyardgrass); type: in vivo, Echinochloa crus-galli
From the text: as §2, §3, §4, §5

PANMI = experiment: Pre-emergence herbicidal activity on PANMI (wild proso millet); type: in vivo, Panicum miliaceum
Summary of the method: as §1

SORHA = experiment: Pre-emergence herbicidal activity on SORHA (johnsongrass, seedling); type: in vivo, Sorghum halepense
From the text: as §2, §3, §4, §5

SETFA = experiment: Pre-emergence herbicidal activity on SETFA (giant foxtail); type: in vivo, Setaria faberi
Summary of the method: as §1

PANDI = experiment: Pre-emergence herbicidal activity on PANDI (fall panicum); type: in vivo, Panicum dichotomiflorum
Summary of the method: as §1

SORVU = experiment: Pre-emergence herbicidal activity on SORVU (shattercane); type: in vivo, Sorghum vulgare
From the text: as §2, §3, §4, §5

BRAPP = experiment: Pre-emergence herbicidal activity on BRAPP (broadleaf signalgrass); type: in vivo, Brachiaria platyphylla
From the text: as §2, §3, §4, §5

DIGSA = experiment: Pre-emergence herbicidal activity on DIGSA (large crabgrass); type: in vivo, Digitaria sanguinalis
Summary of the method: as §1

SMILES | Pre-emergence activity (GR80) on ABUTH (ABUTH) | Pre-emergence activity (GR80) on SOLNI (SOLNI) | Pre-emergence activity (GR80) on AMARE (AMARE) | Pre-emergence activity (GR80) on DATST (DATST) | Pre-emergence activity (GR80) on CHEAL (CHEAL) | Pre-emergence activity (GR80) on CONAR (CONAR) | Pre-emergence activity (GR80) on PORAL (POROL) | Pre-emergence activity (GR80) on CIRAR (CIRAR) | Pre-emergence activity (GR80) on ECHCG (ECHCG) | Pre-emergence activity (GR80) on PANMI (PANMI) | Pre-emergence activity (GR80) on SORHA (SORHA) | Pre-emergence activity (GR80) on SETFA (SETFA) | Pre-emergence activity (GR80) on PANDI (PANDI) | Pre-emergence activity (GR80) on SORVU (SORVU) | Pre-emergence activity (GR80) on BRAPP (BRAPP) | Pre-emergence activity (GR80) on DIGSA (DIGSA)
CC(CNC(=O)c1cccc(C(F)(F)F)c1)NC(=O)c1cccc(C(F)(F)F)c1Cl (centres unmarked) [Example 14] | 250 g/ha | 125 g/ha | 125 g/ha | 64 g/ha | 64 g/ha | 125 g/ha | 125 g/ha | 64 g/ha | 1000 g/ha | 500 g/ha | 500 g/ha | 250 g/ha | 250 g/ha | phyto | 500 g/ha | 125 g/ha
Cc1c(F)cccc1C(=O)NC(C)CNC(=O)c1cccc(C(F)(F)F)c1 (centres unmarked) [Example 38] | 125 g/ha | 250 g/ha | 32 g/ha | 125 g/ha | 64 g/ha | 250 g/ha | 32 g/ha | 125 g/ha | 1000 g/ha | 250 g/ha | 500 g/ha | 250 g/ha | 250 g/ha | * (Where herbicidal activity was evident but 80% inhibition was not achieved at the highest rate tested (typically 1000 g/ha), an asterisk (*) is shown) | 250 g/ha | 125 g/ha
COc1c(F)cccc1C(=O)NC(C)CNC(=O)c1cccc(C(F)(F)F)c1 (centres unmarked) [Example 40] | phyto | phyto | 750 g/ha | 1000 g/ha | 750 g/ha | phyto | * (Where herbicidal activity was evident but 80% inhibition was not achieved at the highest rate tested (typically 1000 g/ha), an asterisk (*) is shown) | – | phyto | phyto | phyto | 1000 g/ha | 750 g/ha | phyto | * (Where herbicidal activity was evident but 80% inhibition was not achieved at the highest rate tested (typically 1000 g/ha), an asterisk (*) is shown) | –
Cc1ccc(Cl)cc1C(=O)NC(C)CNC(=O)c1cccc(C(F)(F)F)c1 (centres unmarked) [Example 47] | 250 g/ha | 125 g/ha | 64 g/ha | 250 g/ha | 64 g/ha | 750 g/ha | 125 g/ha | 125 g/ha | phyto | 250 g/ha | 750 g/ha | 250 g/ha | 250 g/ha | phyto | 500 g/ha | 125 g/ha
